According to patent US20260364077A1, “Method for Predicting Success in Test Subject of Cancer Treatment Drug Which Regulates Splicing Function” (NATIONAL CANCER CENTER, priority 2022, published 2026):

Experiments:
[1] = test system: DLD-1 cells (parental); assay: Growth inhibition of DLD-1 cells (parental), 12-day culture, photographed (Example 3); format: cell-based; details: day 12
Method: (§1) DLD-1 cells (parental), DLD-1-BRCA2 KO (BRCA2 KO), or DLD-1-BRCA2 KO+BRCA2 WT (BRCA2 KO+WT) were seeded at 3×10^3 cells per well in a 6-well plate and incubated at 37 °C under 5% CO2. After removing the medium, a medium containing no drug, or containing 100 nM E7820, 1 μM E7820, 1 μM Indisulam (E7070), or 1 μM olaparib was added, and the cells were cultured at 37 °C under 5% CO2. The medium was replaced with fresh medium containing the same concentration of the drug on days 3, 6, and 9, with the day of drug addition being day 0. On day 12, the cells were photographed, and the sensitivity of the cells to each drug was evaluated.

[2] = test system: γH2AX in wild-type DLD-1; assay: Induction of DNA double-strand breaks (γH2AX Western blotting) in wild-type DLD-1 (Example 4); format: cell-based; details: 1 μM; 72 hours
Method: DLD-1 cells (parental), DLD-1-BRCA2 KO (BRCA2 KO), or DLD-1-BRCA2 KO+BRCA2 WT (BRCA2 KO+WT) were seeded at 1×10^6 cells per well in a 6-well plate and incubated at 37 °C under 5% CO2. After removing the medium, a medium containing no drug, or containing 1 μM E7820, 1 μM Indisulam (E7070), or 1 μM olaparib was added, and the cells were cultured at 37 °C under 5% CO2 for 72 hours. After removing the medium, the cells were washed with PBS, cooled on ice, and RIPA buffer (containing protease and phosphatase inhibitors, Proteintech) was added. The cells were collected using a cell scraper. The collected samples were incubated on ice for 30 minutes, then centrifuged at 12,000×g for 15 minutes at 4 °C to pellet the cell debris. The supernatant was transferred to a new microtube without touching the pellet to obtain the lysate. The obtained lysate was used for SDS-PAGE, membrane transfer, and Western blotting to evaluate the induction of DNA double-strand breaks. The antibodies used for Western blotting were Anti-phospho-Histone H2A.X (Ser139) Antibody (anti-yH2AX antibody, cat #05-636, Sigma-Aldrich) and GAPDH (14C10) Rabbit mAb (anti-GAPDH antibody, cat #2118, Cell Signaling Technology).

[3] = test system: DLD-1-BRCA2 KO (BRCA2 KO); assay: Growth inhibition of DLD-1-BRCA2 KO, 12-day culture, photographed (Example 3); format: cell-based; details: 1 μM; day 12
Method: as §1

[4] = test system: DLD-1-BRCA2 KO+BRCA2 WT (BRCA2 KO+WT); assay: Growth inhibition of DLD-1-BRCA2 KO+BRCA2 WT, 12-day culture, photographed (Example 3); format: cell-based; details: 1 μM; day 12
Method: as §1

[5] = test system: PDX tumors (cholangiocarcinoma, pancreatic cancer, gastric cancer, endometrial cancer, uterine sarcoma); assay: Therapeutic effect of E7820 in patient-derived xenograft (PDX) mouse models and relationship with gene mutations (Example 1); format: in vivo, human patient-derived tumors in NOG mice
Method: In 30 cases of patient-derived xenograft (PDX) mouse models, the therapeutic effect of the cancer therapeutic E7820 that regulates splicing function and the presence or absence of various gene mutations were evaluated.
PDX model mice were prepared by transplanting 2-3 mm square PDX tumor fragments subcutaneously into the back of test animals and allowing them to grow. The test animals used were NOD.Cg-Prkdcscidll2rgtmlSug/ShiJic (NOG mice), female, and 6 weeks old or older. Tumor tissues from 30 patients, including 9 cases of cholangiocarcinoma, 9 cases of pancreatic cancer, 6 cases of gastric cancer, 3 cases of endometrial cancer, and 3 cases of uterine sarcoma, were used as tumor tissues. Grouping was performed when the average tumor volume of the experimental animals reached a size suitable for grouping (approximately 200 mm^3), with each group consisting of n=3-5 mice.
From the day of grouping, E7820 was administered orally at a dose of 100 mg/kg once daily to the 30 PDX model mice prepared in 1-1. Body weight and tumor volume were measured twice a week during the observation period from the day before drug administration and from the day drug administration started (day 0) to day 21. Tumor volume was measured by measuring the long and short diameters of the tumor using calipers and calculating the tumor volume according to the following formula. For animals with no detectable tumor, the tumor volume was set to 0.00 mm^3.
Tumor volume (mm^3)=½×long diameter (mm)×short diameter (mm)×short diameter (mm)
Whole exome sequencing (WES), one of the next-generation sequencing methods, was performed on genomic DNA extracted from the PDX using the NovaSeq 6000 system (Illumina), and mutation analysis was conducted.

[6] = test system: RBM39 (CAPERα); details: mechanism of action; Non Patent Literature 1; cited from earlier work
[7] = 100 mg/kg orally once daily, day 21, among 14 cases with tumor reduction
[8] = 100 mg/kg orally once daily, day 21, among 16 cases without tumor reduction

Structure (SMILES)	growth inhibitory effect ([1]; 1 μM)	γH2AX levels [2]	growth inhibitory effect [3]	induction of cell death [3]	remaining cells [3]	growth inhibitory effect [4]	growth of surviving cells [4]	growth inhibitory effect ([1]; 100 nM)	number of cases with mutations in one or more of BRCA1, BRCA2, ATM, ATR, and BAP1 among the 14 cases with tumor reduction effect [5, 7]	percentage of cases with mutations in one or more of BRCA1, BRCA2, ATM, ATR, and BAP1 among the 14 cases with tumor reduction effect [5, 7]	number of cases with mutations in one or more of the five genes among the 16 cases without tumor reduction effect [5, 8]	percentage of cases with mutations in one or more of the five genes among the 16 cases without tumor reduction effect [5, 8]	PDX model mice in which the tumor volume on day 21 was smaller than on day 0 (tumor reduction effect) ([5]; 100 mg/kg orally once daily, day 21 vs day 0)	cases in which no tumor reduction effect was observed ([5]; 100 mg/kg orally once daily, day 21 vs day 0, 30 PDX models)	tumor reduction effect in model mouse transplanted with a tumor having a mutation in a homologous recombination repair-related gene ([5]; PDX model mouse, tumor with mutation in homologous recombination repair-related gene)	promotion of the proteasomal degradation of RBM39 [6]	growth inhibitory effect ([1]; 1 pM (so in the source))
O=C(c1cc(Cc2n[nH]c(=O)c3ccccc23)ccc1F)N1CCN(C(=O)C2CC2)CC1 [olaparib]	no growth inhibitory effect was observed	increase in γH2AX levels	significant growth inhibitory effects	induction of cell death were observed	almost no remaining cells	growth inhibitory effects were observed	the growth of surviving cells was observed										
Cc1ccc(NS(=O)(=O)c2cccc(C#N)c2)c2[nH]cc(C#N)c12 [E7820, N-(3-cyano-4-methyl-1H-indol-7-yl)-3-cyanobenzenesulfonamide]	no growth inhibitory effect was observed		significant growth inhibitory effects	induction of cell death were observed	almost no remaining cells	growth inhibitory effects were observed	the growth of surviving cells was observed	no growth inhibitory effect was observed	11 cases	79%	3 cases	19%	14 out of the 30 PDX model mice	16 cases	high tumor reduction effect	promotion of the proteasomal degradation of RBM39	
Nc1ccc(S(=O)(=O)Nc2cnc3c(Cl)cccc3n2)cc1 [NSC339004, 4-amino-N-(5-chloroquinoxalin-2-yl)benzenesulfonamide]																promotion of the proteasomal degradation of RBM39	
NS(=O)(=O)c1ccc(S(=O)(=O)Nc2cccc3c(Cl)c[nH]c23)cc1 [Indisulam, N-(3-chloro-1H-indol-7-yl)-4-sulfamoylbenzenesulfonamide]			significant growth inhibitory effects	induction of cell death were observed	almost no remaining cells	growth inhibitory effects were observed	the growth of surviving cells was observed									promotion of the proteasomal degradation of RBM39	no growth inhibitory effect was observed
